ChEMBL document CHEMBL3351364 (J Med Chem, 2014)

Key:
Hepatitis C virus [1] = assay: Antiviral activity against HCV genotype 1b infected in human Huh7 cells after 3 days by cell-based replicon assay; type: functional, Hepacivirus hominis; details: Huh-7, 72 h
Hepatitis C virus [2] = assay: Antiviral activity against HCV genotype 1b infected in human Huh7 cells after 3 days by cell-based replicon assay in presence of 40% normal human serum; type: functional, Hepacivirus hominis; details: Huh-7, 72 h
Hepatitis C virus [3] = assay: Antiviral activity against HCV genotype 1b infected in human Huh7 cells after 3 days by cell-based replicon assay in presence of 10% fetal bovine serum; type: functional, Hepacivirus hominis; details: Huh-7, 72 h
[4] = Cytotoxicity against human HuH7 cells; type: cell-based, Huh-7
[5] = Half life in Sprague-Dawley rat at 5 mg/kg, iv as 30 mins infusion; type: ADME, organism-based; set-up: dose 5 mg/kg, route intravenous; details: in vivo
[6] = Lipophilicity, log P of the compound; type: physicochemical; details: octanol/water
[7] = Oral bioavailability in Sprague-Dawley rat at 30 mg/kg; type: ADME, organism-based; details: in vivo
[8] = Oral bioavailability in beagle dog at 2 mg/kg; type: ADME, organism-based, Canis lupus familiaris; details: in vivo
[9] = Half life in beagle dog at 1 mg/kg, iv as 30 mins infusion; type: ADME, organism-based, Canis lupus familiaris; set-up: dose 1 mg/kg, route intravenous; details: in vivo
[10] = Half life in monkey at 1 mg/kg, iv as 30 mins infusion; type: ADME, organism-based, Macaca mulatta; set-up: dose 1 mg/kg, route intravenous; details: rhesus monkey, in vivo
[11] = Half life in Sprague-Dawley rat at 3 mg/kg, po; type: ADME, organism-based; set-up: dose 3 mg/kg, route oral; details: in vivo
[12] = Oral bioavailability in beagle dog at 2.3 mg/kg; type: ADME, organism-based, Canis lupus familiaris; details: in vivo
[13] = Oral bioavailability in Sprague-Dawley rat at 5 mg/kg; type: ADME, organism-based; details: in vivo
[14] = Half life in monkey at 3 mg/kg, po; type: ADME, organism-based, Macaca mulatta; set-up: dose 3 mg/kg, route oral; details: rhesus monkey, in vivo
[15] = Cmax in Sprague-Dawley rat at 3 mg/kg, po; type: ADME, organism-based; set-up: dose 3 mg/kg, route oral; details: in vivo
[16] = Cmax in monkey at 3 mg/kg, po; type: ADME, organism-based, Macaca mulatta; set-up: dose 3 mg/kg, route oral; details: rhesus monkey, in vivo

Row | Compound | EC50 (Hepatitis C virus [1]) [nM] | EC50 (Hepatitis C virus [2]) [nM] | EC50 (Hepatitis C virus [3]) [nM] | CC50 [4] [nM] | also measured
1 | COC(=O)N[C@H](C(=O)N1CCC[C@H]1c1ncc(-c2ccc(-c3csc4c(-c5ccc6[nH]c([C@@H]7CCCN7C(=O)[C@H](NC(=O)OC)c7ccccc7)nc6c5)csc34)cc2)[nH]1)C(C)C | 0.003 |  |  |  | 
2 | COC(=O)N[C@H](C(=O)N1CCC[C@@H]1c1ncc(-c2ccc(C#CC#Cc3cnc([C@H]4CCCN4C(=O)[C@H](NC(=O)OC)C(C)C)[nH]3)cc2)[nH]1)C(C)C |  | 0.737 | 0.409 | 30300 | 
3 | COC(=O)N[C@@H](C(=O)N1CCC[C@H]1c1ncc(C#CC#Cc2cnc([C@@H]3CCCN3C(=O)[C@H](NC(=O)OC)C(C)C)[nH]2)[nH]1)C(C)C | 1.33 |  |  |  | 
4 | COC(=O)N[C@H](C(=O)N1CCC[C@H]1c1ncc(-c2ccc(-c3ccc(-c4cnc([C@@H]5CC6(CN5C(=O)[C@@H](NC(=O)OC)C(C)C)OCCO6)[nH]4)cc3)cc2)[nH]1)C(C)C | 0.0074 |  |  |  | 
5 | COC(=O)N[C@@H](C(=O)N1CCC[C@H]1c1ncc(-c2ccc(C#CC#Cc3ccc(-c4cnc([C@@H]5CCCN5C(=O)[C@H](NC(=O)OC)C(C)C)[nH]4)cc3)cc2)[nH]1)C(C)C | 0.384 |  |  |  | 
6 | COC(=O)N[C@H](C(=O)N1CCC[C@@H]1c1ncc(C#CC#Cc2ccc(-c3cnc([C@H]4CCCN4C(=O)[C@H](NC(=O)OC)C(C)C)[nH]3)cc2)[nH]1)C(C)C (single isomer, unassigned) |  | 0.243 | 0.079 | 24700 | 
7 | COC(=O)N[C@@H](C(=O)N1CCC[C@H]1c1nc2ccc(C#CC#Cc3ccc4nc([C@@H]5CCCN5C(=O)[C@H](NC(=O)OC)C(C)C)[nH]c4c3)cc2[nH]1)C(C)C | 0.009 |  |  |  | 
8 | COC(=O)N[C@@H](C(=O)N1CCC[C@H]1c1ncc(-c2ccc3c(c2)O[C@@H](c2ccccc2)n2c-3cc3cc(-c4cnc([C@@H]5CCCN5C(=O)[C@H](NC(=O)OC)C(C)C)[nH]4)ccc32)[nH]1)C(C)C | 0.003 |  |  |  | half-life [5]: 4.2 h; logP [6]: 8.61; bioavailability [7]: 9%; bioavailability [8]: 35%; half-life [9]: 4.7 h; half-life [10]: 16 h
9 | COC(=O)N[C@H](C(=O)N1CCCC1c1ncc(C#CC#Cc2ccc(-c3cnc(C4CCCN4C(=O)[C@@H](NC(=O)OC)C(C)C)[nH]3)cc2)[nH]1)C(C)C (single isomer, unassigned; 13j) |  | 6900 | 8880 | 59700 | 
10 | COC(=O)N[C@@H](C(=O)N1CCC[C@H]1c1nc2ccc(C#Cc3ccc4nc([C@@H]5CCCN5C(=O)[C@H](NC(=O)OC)C(C)C)[nH]c4c3)cc2[nH]1)C(C)C | 0.055 |  |  |  | 
11 | COC(=O)N[C@@H](C(=O)N1CCCC1c1ncc(C#CC#Cc2ccc(-c3cnc(C4CCCN4C(=O)[C@H](NC(=O)OC)C(C)C)[nH]3)cc2)[nH]1)C(C)C (single isomer, unassigned; 13b) |  | 137 | 47 | 298000 | 
12 | COC(=O)N[C@@H](C(=O)N1CCCC1c1ncc(C#CC#Cc2ccc(-c3cnc(C4CCCN4C(=O)[C@H](NC(=O)OC)C(C)C)[nH]3)cc2)[nH]1)C(C)C (single isomer, unassigned; 13k) |  | 7440 | 994 | 108000 | 
13 | COC(=O)N[C@H](C(=O)N1CCCC1c1ncc(C#CC#Cc2ccc(-c3cnc(C4CCCN4C(=O)[C@@H](NC(=O)OC)C(C)C)[nH]3)cc2)[nH]1)C(C)C (single isomer, unassigned; 13i) |  | 36.1 | 5.37 | 34700 | 
14 | CN(C)[C@@H](C(=O)N1CCC[C@H]1c1nc2cc(-c3cnc(-c4ccc5[nH]c([C@@H]6CCCN6C(=O)[C@@H](c6ccccc6)N(C)C)nc5c4)o3)ccc2[nH]1)c1ccccc1 | < 4.6 |  |  |  | 
15 | COC(=O)N[C@H](C(=O)N1CCC[C@H]1c1ncc(-c2ccc(-c3ccc(-c4cnc([C@@H]5CCCN5C(=O)[C@@H](NC(=O)OC)C(C)C)[nH]4)cc3)cc2)[nH]1)C(C)C | 0.003 |  |  |  | half-life [11]: 1.5 h; bioavailability [12]: 58.5%; logP [6]: 6.33; bioavailability [13]: 50%; half-life [14]: 3 h; Cmax [15]: 728 nM; Cmax [16]: 500 nM
